Data published in the NIST ThermoML archive (doi:10.1021/je700707y).
Where “and” joins values, the source holds several entries; their conditions need not be identical. Identical values can stand only once. ± gives the expanded uncertainty stated by the source.

Key:
[1] = wn = mass fraction of the nth substance listed; settings: Liquid, Vibrating tube method, w2 = 0.001
[2] = 101.33 kPa, Liquid, Vibrating tube method

CCCCn1cc[n+](C)c1.F[B-](F)(F)F [1-butyl-3-methylimidazolium tetrafluoroborate] + O
Settings	mass density [kg/m3]
[1], 298.15 K, 100 kPa	1197.5 ± 1.6

CCCCn1cc[n+](C)c1.F[P-](F)(F)(F)(F)F [1-butyl-3-methylimidazolium hexafluorophosphate] + O
[1], 101 kPa
Settings	mass density [kg/m3]
293.15 K	1367.5 ± 0.2
298.15 K	1363.4 ± 0.2
303.15 K	1359.2 ± 0.2
308.15 K	1355.2 ± 0.2
313.15 K	1351 ± 0.2
318.15 K	1346.8 ± 0.2
323.15 K	1342.4 ± 0.2
328.15 K	1338.5 ± 0.2
333.15 K	1334.4 ± 0.2
338.15 K	1330.3 ± 0.2
343.15 K	1326.2 ± 0.2

CCCC[N+]1(C)CCCC1.FC(F)(F)C(F)(F)[P-](F)(F)(F)(C(F)(F)C(F)(F)F)C(F)(F)C(F)(F)F
[2]
Settings	mass density [kg/m3]
293.15 K	1588.1 ± 3
303.15 K	1577.3 ± 2.9
313.15 K	1566.8 ± 2.9
323.15 K	1556.4 ± 2.9
333.15 K	1545.9 ± 2.8
343.15 K	1535.5 ± 2.8
353.15 K	1525.1 ± 2.7
363.15 K	1514.7 ± 2.7

CCCC[n+]1ccn(C)c1.O=S(=O)([N-]S(=O)(=O)C(F)(F)F)C(F)(F)F + O
[1], 101 kPa
Settings	mass density [kg/m3]
293.15 K	1439.9 ± 5.2
298.15 K	1435.1 ± 5.2
303.15 K	1430.3 ± 5.1
308.15 K	1425.5 ± 5.1
313.15 K	1420.7 ± 5.1
318.15 K	1416 ± 5
323.15 K	1411.2 ± 5
328.15 K	1406.5 ± 5
333.15 K	1401.7 ± 4.9
338.15 K	1396.9 ± 4.9
343.15 K	1392.2 ± 4.9

CCCCCC[n+]1ccn(C)c1.O=S(=O)([N-]S(=O)(=O)C(F)(F)F)C(F)(F)F
[2]
Settings	mass density [kg/m3]
293.15 K	1375.1 ± 4.8
303.15 K	1366 ± 4.7
313.15 K	1356.9 ± 4.6
323.15 K	1347.9 ± 4.6
333.15 K	1338.8 ± 4.5
343.15 K	1329.8 ± 4.4
353.15 K	1320.9 ± 4.4
363.15 K	1311.9 ± 4.3

CCCCCC[n+]1ccn(C)c1.FC(F)(F)C(F)(F)[P-](F)(F)(F)(C(F)(F)C(F)(F)F)C(F)(F)C(F)(F)F
[2]
Settings	mass density [kg/m3]
293.15 K	1557.1 ± 2.9
298.15 K	1551.8 ± 2.8
303.15 K	1546.4 ± 2.8
313.15 K	1535.7 ± 2.8
323.15 K	1525 ± 2.7
333.15 K	1514.3 ± 2.7
343.15 K	1503.6 ± 2.7
353.15 K	1493 ± 2.6
363.15 K	1482.4 ± 2.6

CCCCn1cc[n+](C)c1.O=S(=O)([O-])C(F)(F)F [1-butyl-3-methylimidazolium trifluoromethanesulfonate]
[2]
Settings	mass density [kg/m3]
293.15 K	1301.3 ± 4.2
303.15 K	1293.4 ± 4.2
313.15 K	1285.6 ± 4.1
323.15 K	1277.7 ± 4.1
333.15 K	1269.9 ± 4
343.15 K	1262.3 ± 4
353.15 K	1254.5 ± 3.9
363.15 K	1246.9 ± 3.9

CCCCCCCCCCCCCC[P+](CCCCCC)(CCCCCC)CCCCCC.O=S(=O)([N-]S(=O)(=O)C(F)(F)F)C(F)(F)F
[2]
Settings	mass density [kg/m3]
293.15 K	1067.6 ± 2.8
303.15 K	1060.3 ± 2.8
313.15 K	1052.9 ± 2.7
323.15 K	1045.7 ± 2.7
333.15 K	1038.6 ± 2.6
343.15 K	1031.5 ± 2.6
353.15 K	1024.4 ± 2.6
363.15 K	1017.3 ± 2.5

CCCCCCCCCCn1cc[n+](C)c1.O=S(=O)([N-]S(=O)(=O)C(F)(F)F)C(F)(F)F
[2]
Settings	mass density [kg/m3]
293.15 K	1282.4 ± 4.1
303.15 K	1273.8 ± 4.1
313.15 K	1265.3 ± 4
323.15 K	1256.8 ± 4
333.15 K	1248.3 ± 3.9
343.15 K	1239.9 ± 3.8
353.15 K	1231.4 ± 3.8
363.15 K	1223.1 ± 3.7

CCCCn1cc[n+](C)c1.F[B-](F)(F)F [1-butyl-3-methylimidazolium tetrafluoroborate]
[2]
Settings	mass density
293.15 K	1203.8 ± 1.7 kg/m3 and 1204.9 ± 1.7 kg/m3
298.15 K	1200 ± 1.6 kg/m3 and 1201.1 ± 1.6 kg/m3
303.15 K	1196.2 ± 1.6 kg/m3 and 1197.4 ± 1.6 kg/m3
308.15 K	1192.4 ± 1.6 kg/m3 and 1193.8 ± 1.6 kg/m3
313.15 K	1188.9 ± 1.6 kg/m3 and 1190.1 ± 1.6 kg/m3
318.15 K	1185.4 ± 1.6 kg/m3 and 1186.5 ± 1.6 kg/m3
323.15 K	1181.3 ± 1.6 kg/m3 and 1182.7 ± 1.6 kg/m3
328.15 K	1177.9 ± 1.6 kg/m3 and 1179 ± 1.6 kg/m3
333.15 K	1174.1 ± 1.6 kg/m3 and 1175.3 ± 1.6 kg/m3
338.15 K	1170.5 ± 1.6 kg/m3 and 1171.7 ± 1.6 kg/m3
343.15 K	1166.9 ± 1.5 kg/m3 and 1168 ± 1.5 kg/m3
